# Measurements taken from patent US11331327B2, “Antibacterial use of halogenated salicylanilides” (UNION therapeutics A/S, priority 2014, dated 2022).
# Where two headings read alike, the source gives them in different places.
# Tested on: S. aureus clinical isolates and S. aureus ATCC 29213
# Experiment: MIC assay according to CLSI criteria, Example 2, S. aureus strains
# Assay type: cell-based, Staphylococcus aureus
# Conditions: Staphylococcus aureus, read-out: MIC
# Procedure: Strains were conserved in Luria Bertani (LB) Broth (S. aureus) or Brain Heart Infusion (BHI) (S. pyogenes) supplemented with glycerol 15% (v/v) at −80° C., and reactivated by isolation on LB (S. aureus) or BHI (S. pyogenes) agar plates. Strains were cultivated in Mueller Hinton (MH) Broth-cation adjusted (S. aureus) or BHI (S. pyogenes). All strains were cultivated aerobically (microaerobically for S. pyogenes strains) at 37° C.
# Bacterial cultures were stopped in their exponential growth phase and plates were inoculated with the approximate concentration of 5×10^5 cells per well. Plates were incubated at 37° C. for 18 hours (S. aureus) or 24 hours (S. pyogenes).
smiles,measurement,setting,value
CC(=O)O[C@H]1C[C@@]2(C)[C@@H](C[C@@H](O)[C@H]3[C@@]4(C)CC[C@@H](O)[C@@H](C)[C@@H]4CC[C@@]32C)/C1=C(\CCC=C(C)C)C(=O)O [Fusidic acid],MIC,"ATCC29213, strain 9-1862936",0.125 µg/mL
same,MIC,"ATCC29213, strain 9-2625962",0.25 µg/mL
same,MIC,"ATCC29213, strain 9-2642158",0.25 µg/mL
same,MIC,"ATCC29213, strain 9-2955245",0.25 µg/mL
same,MIC,"ATCC29213, strain 9-26422166",8 µg/mL
same,MIC,"ATCC29213, strain 000040C",0.25 µg/mL
same,MIC,"ATCC29213, strain 000041C",0.25 µg/mL
same,MIC,"ATCC29213, strain 000274T",0.5 µg/mL
same,MIC,"ATCC29213, strain 114660U",0.25 µg/mL
same,MIC,"ATCC29213, strain 115015T",0.25 µg/mL
same,MIC,"ATCC29213, strain 115242C",8 µg/mL
same,MIC,"ATCC29213, strain 115263C",0.125 µg/mL
same,MIC,"ATCC29213, strain 115268C",0.25 µg/mL
same,MIC,"ATCC29213, strain 115273C",0.25 µg/mL
same,MIC,"ATCC29213, strain 115295C",0.125 µg/mL
same,MIC,"ATCC29213, strain 115303C",0.25 µg/mL
same,MIC,"ATCC29213, strain 115370U",0.5 µg/mL
same,MIC,"ATCC29213, strain 115427C",0.125 µg/mL
same,MIC,"ATCC29213, strain 115445C",0.25 µg/mL
same,MIC,"ATCC29213, strain 115561C",0.125 µg/mL
same,MIC,"ATCC29213, strain 115584D",0.25 µg/mL
same,MIC,"ATCC29213, strain 115628T",8 µg/mL
same,MIC,"ATCC29213, strain 115690C",8 µg/mL
same,MIC,"ATCC29213, strain 115691T",0.25 µg/mL
same,MIC,"ATCC29213, strain 115740E",0.25 µg/mL
same,MIC,"ATCC29213, strain 115810E",0.25 µg/mL
same,MIC,"ATCC29213, strain 115903T",8 µg/mL
same,MIC,"ATCC29213, strain 116122T",0.125 µg/mL
same,MIC,"ATCC29213, strain ATCC 29213",0.06 µg/mL
same,MIC,"ATCC29213, strain E5-1029252",0.25 µg/mL
same,MIC,"ATCC29213, strain E5-1029558",16 µg/mL
same,MIC,"ATCC29213, strain E5-1030440",0.25 µg/mL
same,MIC,"ATCC29213, strain E5-1030469",0.125 µg/mL
same,MIC,"ATCC29213, strain E5-1030472",0.25 µg/mL
same,MIC,"ATCC29213, strain E5-1030482",16 µg/mL
same,MIC,"ATCC29213, strain E5-1033076 (first line, r202)",0.25 µg/mL
same,MIC,"ATCC29213, strain E5-1033076 (second line, r203)",0.25 µg/mL
same,MIC,"ATCC29213, strain E5-1033088",0.25 µg/mL
same,MIC,"ATCC29213, strain E5-1033091",0.03 µg/mL
same,MIC,"ATCC29213, strain E5-1035277",16 µg/mL
same,MIC,"ATCC29213, strain E5-1035284",0.25 µg/mL
same,MIC,"ATCC29213, strain E5-1035775",> 16 µg/mL
same,MIC,"ATCC29213, strain E5-1035779",0.125 µg/mL
same,MIC,"ATCC29213, strain E5-1037958",16 µg/mL
same,MIC,"ATCC29213, strain E5-1037971",0.25 µg/mL
same,MIC,"ATCC29213, strain E5-1038279",4 µg/mL
same,MIC,"ATCC29213, strain E5-1038286",0.25 µg/mL
same,MIC,"ATCC29213, strain E5-1038294",0.25 µg/mL
same,MIC,"ATCC29213, strain E5-1039684",16 µg/mL
same,MIC,"ATCC29213, strain E5-1039697",0.5 µg/mL
same,MIC,"ATCC29213, strain E5-1041977",16 µg/mL
same,MIC,"ATCC29213, strain E5-1041979",0.25 µg/mL
same,MIC,"ATCC29213, strain E5-1041980",0.25 µg/mL
same,MIC,"ATCC29213, strain E5-1041987",16 µg/mL
same,MIC,"ATCC29213, strain E5-1043184",16 µg/mL
same,MIC,"ATCC29213, strain E5-1043668",1 µg/mL
same,MIC,"ATCC29213, strain E5-1045179",0.25 µg/mL
same,MIC,"ATCC29213, strain E5-1046019",0.25 µg/mL
same,MIC,"ATCC29213, strain E5-1046020",0.25 µg/mL
same,MIC,"ATCC29213, strain E5-1046039",0.25 µg/mL
same,MIC,"ATCC29213, strain E5-1046070",0.25 µg/mL
same,MIC,"ATCC29213, strain E5-1046074",0.125 µg/mL
same,MIC,"ATCC29213, strain E5-1046085",8 µg/mL
same,MIC,"ATCC29213, strain E5-1046096",0.5 µg/mL
same,MIC,"ATCC29213, strain E5-1046296",0.125 µg/mL
same,MIC,"ATCC29213, strain E5-1046297",0.125 µg/mL
same,MIC,"ATCC29213, strain E5-1046298",0.125 µg/mL
same,MIC,"ATCC29213, strain E5-1046723",0.5 µg/mL
same,MIC,"ATCC29213, strain E5-1047585",0.25 µg/mL
same,MIC,"ATCC29213, strain E5-1047606",8 µg/mL
same,MIC,"ATCC29213, strain E5-1047924",0.25 µg/mL
same,MIC,"ATCC29213, strain E5-1048204",0.25 µg/mL
same,MIC,"ATCC29213, strain E5-1048428",0.5 µg/mL
same,MIC,"ATCC29213, strain E5-1048654",0.5 µg/mL
same,MIC,"ATCC29213, strain E5-1048670",0.5 µg/mL
same,MIC,"ATCC29213, strain EEFIC 01",4 µg/mL
same,MIC,"ATCC29213, strain EEFIC 02",4 µg/mL
same,MIC,"ATCC29213, strain K000772",> 16 µg/mL
same,MIC,"ATCC29213, strain K000796",8 µg/mL
same,MIC,"ATCC29213, strain K000863",1 µg/mL
same,MIC,"ATCC29213, strain K000864",0.25 µg/mL
same,MIC,"ATCC29213, strain K000866",8 µg/mL
same,MIC,"ATCC29213, strain K115498",0.125 µg/mL
same,MIC,"ATCC29213, strain K115688",0.125 µg/mL
same,MIC,"ATCC29213, strain K115689",0.125 µg/mL
same,MIC,"ATCC29213, strain R000019",0.125 µg/mL
same,MIC,"ATCC29213, strain R000020",0.125 µg/mL
same,MIC,"ATCC29213, strain R000024",16 µg/mL
same,MIC,"ATCC29213, strain U115579",0.25 µg/mL
same,MIC,"ATCC 29213 / MRSA, strain MRSA 01",0.125 µg/mL
same,MIC,"ATCC 29213 / MRSA, strain MRSA 02",0.5 µg/mL
same,MIC,"ATCC 29213 / MRSA, strain MRSA 03",16 µg/mL
same,MIC,"ATCC 29213 / MRSA, strain MRSA 04",0.25 µg/mL
same,MIC,"ATCC 29213 / MRSA, strain MRSA 05",0.125 µg/mL
same,MIC,"ATCC 29213 / MRSA, strain MRSA 06",0.125 µg/mL
same,MIC,"ATCC 29213 / MRSA, strain MRSA 07",0.25 µg/mL
same,MIC,"ATCC 29213 / MRSA, strain MRSA 08",0.125 µg/mL
same,MIC,"ATCC 29213 / MRSA, strain MRSA 09",0.25 µg/mL
same,MIC,"ATCC 29213 / MRSA, strain MRSA 10",1 µg/mL
same,MIC,"ATCC 29213 / MRSA, strain MRSA 11",1 µg/mL
same,MIC,"ATCC 29213 / MRSA, strain MRSA 12",4 µg/mL
same,MIC,"ATCC 29213 / MRSA, strain MRSA 13",4 µg/mL
same,MIC,"ATCC 29213 / MRSA, strain MRSA 14",> 16 µg/mL
